Reference: PMC3995012, “The Cyanobactin Heterocyclase Enzyme: A Processive Adenylase That Operates with a Defined Order of Reaction” (Angewandte Chemie (International Ed. in English), 2013)
“Also recorded” adds a separate entry of the source. Where two headings read alike, the source gives them in different places.

How the values were obtained:
TruD [1] = target: T1, TruD (uncultured Prochloron sp. 06037A, UniProt B2KYG8); assay: Isothermal titration calorimetry (VP-ITC), nucleotide injected into TruD in 150 mM NaCl, 10 mM HEPES pH 7.4, 1 mM TCEP at 20 or 25 °C, fitted to a one-site model.; type: binding
T1 construct: codon-optimized full-length, N-terminal His6-tag removed by TEV protease, expressed in E. coli BL21 (DE3); homodimer with structural Zn
T1 sequence (B2KYG8 2-781): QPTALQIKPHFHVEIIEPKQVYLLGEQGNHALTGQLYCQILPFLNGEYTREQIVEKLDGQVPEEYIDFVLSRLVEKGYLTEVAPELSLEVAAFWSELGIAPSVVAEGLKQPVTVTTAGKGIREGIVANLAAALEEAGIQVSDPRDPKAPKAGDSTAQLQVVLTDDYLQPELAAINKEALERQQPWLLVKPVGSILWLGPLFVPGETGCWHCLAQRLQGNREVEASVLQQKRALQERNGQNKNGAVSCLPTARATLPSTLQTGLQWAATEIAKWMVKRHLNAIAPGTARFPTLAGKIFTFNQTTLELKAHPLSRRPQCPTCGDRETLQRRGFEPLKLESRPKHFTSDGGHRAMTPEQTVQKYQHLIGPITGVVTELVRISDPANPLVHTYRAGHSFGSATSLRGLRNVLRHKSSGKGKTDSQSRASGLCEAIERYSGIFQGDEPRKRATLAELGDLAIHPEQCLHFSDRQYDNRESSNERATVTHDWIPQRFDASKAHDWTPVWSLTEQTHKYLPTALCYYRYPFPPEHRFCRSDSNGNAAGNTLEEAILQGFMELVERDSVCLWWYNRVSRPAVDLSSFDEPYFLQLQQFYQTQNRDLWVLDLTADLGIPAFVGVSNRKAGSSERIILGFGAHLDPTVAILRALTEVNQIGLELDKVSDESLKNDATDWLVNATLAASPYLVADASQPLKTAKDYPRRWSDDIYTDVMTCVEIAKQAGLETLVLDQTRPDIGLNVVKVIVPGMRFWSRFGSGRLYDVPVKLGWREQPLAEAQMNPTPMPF
Protocol: (§1) TruD solutions. The top panels show raw data representing the response to injections, the bottom panels show integrated heats of injections (!) and the best fit (— ) to the […]
(§2) nucleoside. […]
(§3) ITC experiments were carried out using a VP-ITC instrument (MicroCal) in TruD sample buffer (150 mM NaCl, 10 mM HEPES pH 7.4, 1 mM TCEP) at 20 or 25 °C.
(§4) Protein concentrations were determined using absorbance at 280 nm and predicted extinction coefficients (ProtParam, ExPASy) used. The concentration of PatEY53A, which lacks absorbance at 280 nm, was based on absorbance at 230 nm. All solutions were dialyzed overnight. Nucleotides and the #25 peptide were dissolved in TruD sample buffer and the pH was adjusted with small amounts of 1 M NaOH to match the buffer. Cell and syringe solutions were degassed at 18 or 23 °C for 15 min.
Titrations were performed as follows: one injection of 2 µl followed by injections of 5-10 µl at an injection speed of 0.5 µl/min. The stirring speed was 307 rpm; the delay between the injections was 4-6 min. […]
(§5) NMR experiments were performed at 10 °C on a Bruker DRX500 spectrometer equipped with a 5mm TXIz probe. […] Aliquots of 646 µM TruD were added to final concentrations of 50, 100 and 150 µM, and HSQCs were recorded after each addition. For heterocyclization monitoring, the samples contained 200 µM u-15N-PatE precursor peptide and were incubated at 10 °C with 5 µM TruD in heterocyclization buffer with 5% D2O, and spectra were recorded at progressively longer intervals (initially 0.5 h, then 1 h, then 2 h). […]
For sequential assignment, a 1.0 mM sample of u-13C, 15N-PatE precursor peptide in heterocyclization buffer was prepared. […] Equivalent spectra were recorded for fully heterocyclized u-13C, 15N-PatE (concentration 1.0 mM) and a sample where the enzymatic transformation was interrupted after 8 h by gel filtration on a Superdex S75 column (GE Healthcare) in TruD sample buffer (see ITC experimental section), thus allowing assignment of the reaction intermediate. All spectra were processed with NMRPipe ,$- and analyzed with CCPN Analysis 2.1 ,%-. […]

TruD [2] = assay: ITC, injection of nucleosides into TruD solutions; type: binding, Prochloron spp.; details: for Kd: one-site model
Protocol: as §1, §2, §3, §4
Titrations were performed as follows: one injection of 2 µl followed by injections of 5-10 µl at an injection speed of 0.5 µl/min. The stirring speed was 307 rpm; the delay between the injections was 4-6 min. To take into account heats of dilution, blank titrations were performed by injecting ligand solution into TruD sample buffer and the averaged heat of dilution was subtracted from the main experiment. Blank titrations were omitted in cases of saturated binding where the averaged residual signal of the last injections was used to determine the heat of dilution. Raw data were processed using MicroCal Origin software. […]
as §5
For sequential assignment, a 1.0 mM sample of u-13C, 15N-PatE precursor peptide in heterocyclization buffer was prepared. […] Equivalent spectra were recorded for fully heterocyclized u-13C, 15N-PatE (concentration 1.0 mM) and a sample where the enzymatic transformation was interrupted after 8 h by gel filtration on a Superdex S75 column (GE Healthcare) in TruD sample buffer (see ITC experimental section), thus allowing assignment of the reaction intermediate. All spectra were processed with NMRPipe ,$- and analyzed with CCPN Analysis 2.1 ,%-.
31P NMR experiments were performed at 10 °C on a Bruker AVANCE III spectrometer equipped with a 5mm BBFO+ (Smart) probe and required the substitution of sample buffer TCEP with DTT. […] 31P NMR spectra were recorded with broadband power-gated 1H decoupling and relaxation delay D1 = 1.5s. […]

TruD [3] = assay: Heterocyclization reactions analysed by MS (ESI, MALDI, fragmentation); type: biochemical, Prochloron spp.; details: for use as nucleotide cofactor for heterocyclization of PatE2 by TruD: PatE2 with TruD, LC-MS and HSQC NMR of products
Protocol: for 20 min followed by passage through a 0.45 "m filter. The cleared lysate was applied to a Ni-sepharose FF column (GE Healthcare) equilibrated with urea lysis buffer and protein eluted with urea lysis buffer containing 250 mM imidazole. The eluate was then supplemented with 10 mM DTT and incubated at room temperature for 30 min before size-exclusion chromatography (Superdex 75, GE Healthcare) in 150 mM NaCl, 10 mM HEPES pH 7.4, 1 mM TCEP. Peak fractions were pooled and […]
PatE for NMR studies was produced as above, except that E. coli were grown in M9 minimal medium ,*- prepared with 15NH4Cl (Sigma) and additionally with 13C6-glucose (Sigma) for doubly labeled protein. Cells were grown to an optical density at 600 nm of 0.6, at which point expression was induced by addition of 0.5 mM IPTG and grown over night at 30 °C.
Heterocyclization reactions
For all heterocyclization reactions for MS analysis, 100 µM substrate (PatE, PatE mutants and peptides) was incubated with 0.5 µM enzyme in heterocyclization buffer (150 mM NaCl, 10 mM HEPES pH 7.4, 1 mM TCEP, 5 mM ATP, 5 mM MgCl2) for 60 min, 70 min or 16 h at 37 °C. Samples were analyzed by ESI or MALDI MS (LCT, Micromass or 4800 MALDI TOF/TOF Analyzer, ABSciex). […]
For heterocyclization reactions to be monitored by NMR the PatE concentration was increased to 200 µM and 5 µM TruD was used and the incubation temperature reduced to 10 °C. For reaction endpoints analyzed by 31P NMR samples were […]
The assay is based on coupling the TruD-dependent formation of AMP to the lactate dehydrogenase oxidation decay of NADH with NADH concentration monitored by 340 nm absorbance. […]
each added to the assay in this order. […] The decay of NADH concentration were recorded for 40 min and calculated by using extinction coefficient for NADH (#340 = […]
MALDI MS was acquired using a 4800 MALDI TOF/TOF Analyzer (ABSciex, Foster City, CA) equipped with a Nd:YAG 355 nm laser in linear mode and calibrated using the [M+H]+ and [M+2H]2+ peaks of ubiquitin. The spot was analyzed in positive MS mode between 3000 and 10000 m/z, by averaging 1000 laser spots. […]

[4] = VP-ITC, 150 mM NaCl, 10 mM HEPES pH 7.4, 1 mM TCEP, 20 or 25 °C, read-out: KD

Nc1ncnc2c1ncn2[C@@H]1O[C@H](COP(=O)(O)OP(=O)(O)O)[C@@H](O)[C@H]1O [ADP, adenosine 5'-diphosphate] showed a Kd (TruD [1]; read-out: KD) of 20 µM.

Nc1ncnc2c1ncn2[C@@H]1O[C@H](COP(=O)(O)OP(=O)(O)OP(=O)(O)O)[C@@H](O)[C@H]1O [ATP] gave a Kd (TruD [2]; [4]) of 19 µM.

Nc1ncnc2c1ncn2[C@@H]1O[C@H](COP(=O)(O)O)[C@@H](O)[C@H]1O [AMP, adenosine 5'-monophosphate] gave a Kd (TruD [1]; read-out: KD) of 12 µM.

For “ITACITFC [core peptide, the eight-residue core peptide itself]”, the “processing (heterocyclization of cysteines) by TruD” value (TruD [3]; 100 µM substrate, 0.5 µM enzyme, 150 mM NaCl, 10 mM HEPES pH 7.4, 1 mM TCEP, 5 mM ATP, 5 mM MgCl2, 60 min, 70 min or 16 h at 37 °C, ESI or MALDI MS) was “No reaction”.

In the case of Nc1nc2c(ncn2[C@@H]2O[C@H](COP(=O)(O)OP(=O)(O)OP(=O)(O)O)[C@@H](O)[C@H]2O)c(=O)[nH]1 [GTP], the “use as nucleotide cofactor for heterocyclization of PatE2 by TruD” value (TruD [3]) is reported as “can catalyze heterocyclization of cysteine”.

In the case of Nc1ncnc2c1ncn2[C@@H]1O[C@H](COP(=O)(O)OP(=O)(O)O)[C@@H](O)[C@H]1O [ADP], the Kd (TruD [2]; ADP decomposes slowly, only the rapidly emerging endothermic parts of the ITC signals analysed, read-out: apparent KD) is reported as 20 µM.

For Nc1ncnc2c1ncn2[C@@H]1O[C@H](COP(=O)(O)OP(=O)(O)OP(=O)(O)O)[C@@H](O)[C@H]1O [ATP, adenosine 5'-triphosphate], the Kd (TruD [1]) was 19 µM.

In the case of Cc1cn([C@H]2C[C@H](O)[C@@H](COP(=O)(O)OP(=O)(O)OP(=O)(O)O)O2)c(=O)[nH]c1=O [dTTP], the “binding to TruD in ITC experiments” value (TruD [2]; injection into a TruD solution) is reported as “not report binding under these conditions; also recorded: does not bind” and the “use as nucleotide cofactor for heterocyclization of PatE2 by TruD” value (TruD [3]) is reported as “can catalyze heterocyclization of cysteine”.

With Nc1ncnc2c1ncn2[C@@H]1O[C@H](COP(=O)(O)O)[C@@H](O)[C@H]1O [AMP] the Kd (TruD [2]; [4]) was 12 µM.
